Results reported in paper PMC9913425, “Pentacyclic Triterpenoids-Based Ionic Compounds: Synthesis, Study of Structure–Antitumor Activity Relationship, Effects on Mitochondria and Activation of Signaling Pathways of Proliferation, Genome Reparation and Early Apoptosis” (Cancers, 2023).

Columns and labels:
Format in all cases: cell-based
ATR kinase = assay: Luminex xMAP DNA Damage/Genotoxicity panel, ATR kinase content; details: Jurkat cells; 12a 0.006 µM, 13d 0.004 µM per 100,000 cells; 6 and 12 h
p53 = assay: Luminex xMAP panel, p53 protein content; details: Jurkat cells; 12a 0.006 µM, 13d 0.004 µM per 100,000 cells; first 6 h
Jurkat cells [1] = assay: Apoptosis/necrosis induction (Annexin V Alexa Fluor488, 7AAD staining); details: compound at IC50 concentration, incubation 2 h
How it was run: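 Jurkat cells stained with Annexin V Alexa Fluor488, 7AAD and MitoSense Red to assess membrane state, DNA and mitochondrial membrane integrity, distinguishing apoptosis from necrosis; lower MitoSense Red fluorescence marks mitochondrial damage.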

Chk2 = assay: Luminex xMAP DNA Damage/Genotoxicity panel, phosphorylated Chk2; details: Jurkat cells; 12a 0.006 µM, 13d 0.004 µM per 100,000 cells; 6 and 12 h
Source text: [Worded in the source for another target; used here, by the source, with some conditions changed.] (§1) The determination of proteins in a cell by Luminex xMAP technology is characterized by the presence of multiplex multiparametric analysis with the simultaneous use of a multiplex of antibodies with a fluorescent label and magnetic particles, thereby resulting in an increase in the sensitivity of the technique and expansion of the dynamic range, as well as an increase in detection accuracy. Luminex XMAP technology provides a simultaneous analysis of a sufficient number of different proteins in various types of biological fluids (plasma, serum, cerebrospinal fluid, follicular fluid, tissue lysate, etc.) and in cell supernatants. Consequently, multiplexing saves time/costs and ensures the same conditions for the measurements, which is essential for significance and statistical processing.
(§2) Magnetic microspheres (stained inside with two fluorescent dyes) in combination with monoclonal antibodies against the analyzed analytes (the main intracellular kinases in this case) are incubated with the samples and standards; then, the samples/standards are incubated with biotinylated monoclonal antibodies against the analyzed analytes and, finally, with a solution of streptavidin–phycoerythrin. The Luminex technology identifies the different proteins present in each well and converts the mean fluorescence intensity (MFI) of each measured cytokine to pg/mL using software and standard curves. This approach is successfully applied in fundamental and clinical research. In this work, we analyzed various protein analytes that make up the phosphorylated and non-phosphorylated fractions of the main kinases in the signaling pathways: CREB, JNK, NFkB, p38, ERK1/2, Akt, p70S6K, STAT3, STAT5 proteins in six samples of lysates of Jurkat tumor cells by Luminex technology (MILLIPLEX® MAP 9-Plex Multi-Pathway 9-plex Magnetic Bead Kit).

γH2AX = assay: Luminex xMAP DNA Damage/Genotoxicity panel, phosphorylated γH2AX; details: Jurkat cells; 6 and 12 h
Source text: as §1, with “processing. Simultaneous measurement of cytokines by bead multiplex analysis has certain similarities with ELISA, in particular the use of antibodies, but has a fundamental difference in using magnetic fluorescent beads coupled to antikinase monoclonal antibodies.” for “processing.”
as §2
Phosphorylation of histone H2AX at serine 139 (γH2AX) is an early stage in the cellular response to DNA damage, when the damage brings about formation of a double-strand break (DSB). γH2AX foci, considered as markers of DNA double-strand breaks, are easily detected by immunofluorescence microscopy and flow cytometry. The two main signaling pathways ATM/Chk2 and ATR/Chk1 respond to DNA damage and both lead to H2AX phosphorylation, but the ATR/Chk1 pathway causes γH2AX formation to a much lesser extent. The role of γH2AX in DNA repair is also discussed.
Incubation time with the test compounds was 6 and 12 h. p < 0.001 (***).

Chk1 = assay: Luminex xMAP DNA Damage/Genotoxicity panel, phosphorylated Chk1; details: Jurkat cells; 12a 0.006 µM, 13d 0.004 µM per 100,000 cells; 6 and 12 h
Source text: [Worded in the source for another target; used here, by the source, with some conditions changed.] as §1, §2

Jurkat cells [2] = assay: Cell cycle analysis (Guava Cell Cycle Reagent); details: IC50 concentration, 24 h, flow histogram
Method: Our findings are consistent with the literature data that many ICs predominantly affect the G2 and S phases, reducing them.
The incubation time of ionic liquids with cells was 24 h. […] It is listed because the picture prints the label with values. / The fit parameters printed in each histogram (RMS, Mean G1, Mean G2, G2/G1, CV G1, CV G2) were left out as statistics of the cell-cycle model.

## CC1(C)CC[C@]2(C(=O)OCCCCCC[n+]3ccccc3)CC[C@]3(C)C(=CCC4[C@@]5(C)CC[C@H](O)C(C)(C)C5CC[C@]43C)C2C1 (stereo partly drawn) [12a, 1-(6-{[(3β)-3-Hydroxyolean-12-en-28-oyl]oxy}hexyl)-pyridinium bromide]
ATR kinase
  level of ATR kinase: significant increase
p53
  expression of p53 protein: significantly increased
Jurkat cells [1]
  Apoptosis (%) Early: 0%
  Apoptosis (%) Late: 22.63%
  Apoptosis (%) Necrosis: 65.18%
  percentage of cells in the apoptotic state: 87.81%
Chk2
  content of phosphorylated checkpoint kinase Chk2: significantly decreases
γH2AX
  level of γH2AX (accumulation): low levels
Chk1
  content of phosphorylated checkpoint kinase Chk1: significantly decreases

## CC(=O)[O-].C[n+]1ccn(CCCCCCOC(=O)[C@]23CCC(C)(C)CC2C2=CCC4[C@@]5(C)CC[C@H](O)C(C)(C)C5CC[C@@]4(C)[C@]2(C)CC3)c1 (stereo partly drawn) [13d, 1-(6-{[(3β)-3-Hydroxyolean-12-en-28-oyl]oxy}hexyl)-3-methylimidazolium Acetate]
ATR kinase
  level of ATR kinase: significant increase
p53
  expression of p53 protein: significantly increased
Jurkat cells [1]
  Apoptosis (%) Early: 11.00%
  Apoptosis (%) Necrosis: 85.0%
  percentage of cells in the apoptotic state: 98.32%
Chk2
  content of phosphorylated checkpoint kinase Chk2: significantly decreases
Jurkat cells [2]
  Freq Sub-G1 (hypodiploid cell population): 6.91%
γH2AX
  level of γH2AX (accumulation): low levels
Chk1
  content of phosphorylated checkpoint kinase Chk1: significantly decreases
